Test results published in patent US8637507B2, “Bicyclic compounds as inhibitors of diacylglycerol acyltransferase” (Merck Sharp & Dohme Corp., priority 2009, dated 2014).

Biological target: human DGAT1 enzyme (Homo sapiens (Human), UniProt O75907)
Details: read-out: hDGAT1 IC50; human DGAT1 expressed in Sf9 insect cells, microsomes; 2 hours at room temperature
Description: The in vitro assay to identify DGAT1 inhibitors uses human DGAT1 enzyme expressed in Sf9 insect cells prepared as microsomes. The reaction was initiated by the addition of the combined substrates 1,2-dioleoyl-sn-glycerol and [^14C]-palmitoyl-CoA and incubated with test compounds and microsomal membranes for 2 hours at room temperature. The assay was stopped by adding 0.5 mg wheat germ agglutinin beads in assay buffer with 1% Brij-35 and 1% 3-cholamidopropyldimethyl-ammonio-1-propane sulfonate. Plates were sealed with TopSeal and incubated for 18 hours to allow the radioactive triglyceride product to come into proximity with the bead. Plates were read on a TopCount instrument.
Percent inhibition was calculated as the percent of (test compound inhibition minus non-specific binding) relative to (total binding minus non-specific binding). IC50 values were determined by curve fitting the data to a Sigmoidal dose-response in GraphPad Prism utilizing the following equation: Y=A+(B−A)/(1+10^((Log IC50−X))), where A and B are the bottom and top of the curve (highest and lowest inhibition), respectively, and X is the logarithm of concentration.

Sequence of human DGAT1 enzyme (O75907 whole entry): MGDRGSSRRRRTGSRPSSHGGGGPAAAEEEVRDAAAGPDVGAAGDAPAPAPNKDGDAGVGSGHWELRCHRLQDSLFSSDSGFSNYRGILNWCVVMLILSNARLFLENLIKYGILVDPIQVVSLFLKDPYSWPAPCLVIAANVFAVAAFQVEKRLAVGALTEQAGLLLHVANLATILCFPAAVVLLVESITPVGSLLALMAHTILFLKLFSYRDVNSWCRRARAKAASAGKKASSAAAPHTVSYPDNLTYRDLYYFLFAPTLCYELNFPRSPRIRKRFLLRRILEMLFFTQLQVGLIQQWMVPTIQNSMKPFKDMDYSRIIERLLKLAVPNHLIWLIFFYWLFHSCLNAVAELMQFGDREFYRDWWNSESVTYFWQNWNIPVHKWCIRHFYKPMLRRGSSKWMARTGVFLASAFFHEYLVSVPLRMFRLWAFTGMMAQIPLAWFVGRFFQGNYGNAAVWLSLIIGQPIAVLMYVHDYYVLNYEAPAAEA

IC50: 275 nM
Structure (SMILES): Cc1cc(C(=O)Nc2ccccc2)c2ccc(-c3ccc(OCC(C)(C)C(=O)O)nc3)cc2n1 [Example B-17, 2,2-dimethyl-3-(5-(2-methyl-4-(phenylcarbamoyl)quinolin-7-yl)pyridin-2-yloxy)propanoic acid]
